# Measured values: ChEMBL document CHEMBL3085710, “Pahangensin A and B, two new antibacterial diterpenes from the rhizomes of Alpinia pahangensis Ridley” (2013)
# How the values were obtained:
# Bacillus cereus = experiment: Antibacterial activity against Bacillus cereus Frankland and Frankland ATCC 11778 after overnight incubation by broth microdilution method; assay type: functional
# Bacillus subtilis = experiment: Antibacterial activity against Bacillus subtilis (Ehrenberg) Cohn ATCC 6051 after overnight incubation by broth microdilution method; assay type: functional
# Staphylococcus aureus = experiment: Antibacterial activity against Staphylococcus aureus Rosenbach ATCC 9144 after overnight incubation by broth microdilution method; assay type: functional
# Salmonella sp. = experiment: Antibacterial activity against Salmonella sp. ATCC 700623 after overnight incubation by broth microdilution method; assay type: functional
# Salmonella typhimurium = experiment: Antibacterial activity against Salmonella typhimurium (Loeffler) Castellani and Chalmers ATCC 14028 after overnight incubation by broth microdilution method; assay type: functional, Salmonella enterica subsp. enterica serovar Typhimurium; conditions: Salmonella enterica
# Escherichia coli = experiment: Antibacterial activity against Escherichia coli (Migula) Castellani and Chalmers ATCC 25922 after overnight incubation by broth microdilution method; assay type: functional
Structure (SMILES),MIC (Bacillus cereus) [µg/mL],MIC (Bacillus subtilis) [µg/mL],MIC (Staphylococcus aureus) [µg/mL],MIC (Salmonella sp.) [µg/mL],MIC (Salmonella typhimurium) [µg/mL],MIC (Escherichia coli) [µg/mL]
C=C1CC[C@H]2C(C)(C)CCC[C@]2(C)[C@H]1C/C=C(/C=O)CC(=O)OC,52.1,,,,,
C=C1CC[C@H]2C(C)(C)CCC[C@]2(C)[C@H]1/C=C/C1=C(C2=C(/C=C/[C@H]3C(=C)CC[C@H]4C(C)(C)CCC[C@]34C)COC2=O)C(=O)OC1,31.2,31.2,52.1,,,
O=C(N[C@H](CO)[C@H](O)c1ccc([N+](=O)[O-])cc1)C(Cl)Cl [CHLORAMPHENICOL],15.6,15.6,31.2,15.6,15.6,7.81
CC1(C)S[C@@H]2[C@H](NC(=O)Cc3ccccc3)C(=O)N2[C@H]1C(=O)O [PENICILLIN G],62.5,15.6,3.91,31.2,125,125
CN[C@@H]1[C@H](O[C@H]2[C@H](O[C@H]3[C@H](O)[C@@H](O)[C@H](N=C(N)N)[C@@H](O)[C@@H]3N=C(N)N)O[C@@H](C)[C@]2(O)C=O)O[C@@H](CO)[C@H](O)[C@H]1O [STREPTOMYCIN],15.6,31.2,31.2,15.6,62.5,15.6
